Experimental data as given in the supplement of paper PMC10307832.

Tests used:
Test in all cases: relative viability (nuclei count vs DMSO), 5 days (fraction); higher = more cells survive
[1] = compound: CC1=C(C(=O)N2C=CSC2=N1)CCN3CCC(=C(C4=CC=CC=C4)C5=CC=C(C=C5)F)CC3 + CC(=O)c1c(C)c2cnc(Nc3ccc(N4CCNCC4)cn3)nc2n(C2CCCC2)c1=O [Palbociclib] (partner 0.5 µM)
How it was run: (§1)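 For relative viability, nuclei counts in treated wells were divided by those in vehicle wells. Lung cancer cell lines had been pin-tool dosed in 1536-well plates the day after seeding and cultured for 5 days, then fixed and stained in one step (final 0.05% Triton X-100, 1% formaldehyde, 1 ug/ml Hoechst) and imaged at 4×. Doses were one drug alone or a fixed anchor-drug dose plus five library-drug doses (not always all listed) in √10 steps, and values are duplicate-plate medians.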

[2] = compound: CC1=C(C(=O)N2C=CSC2=N1)CCN3CCC(=C(C4=CC=CC=C4)C5=CC=C(C=C5)F)CC3 + Nc1nc2[nH]cc(CCc3ccc(C(=O)N[C@@H](CCC(=O)O)C(=O)O)cc3)c2c(=O)[nH]1 [Pemetrexed] (partner 0.2 µM)
How it was run: as §1

[3] = compound: CC1=C(C(=O)N2C=CSC2=N1)CCN3CCC(=C(C4=CC=CC=C4)C5=CC=C(C=C5)F)CC3 + O=C(c1cc(Cc2n[nH]c(=O)c3ccccc23)ccc1F)N1CCN(C(=O)C2CC2)CC1 [Olaparib] (partner 8 µM)
How it was run: as §1

[4] = compound: CC1=C(C(=O)N2C=CSC2=N1)CCN3CCC(=C(C4=CC=CC=C4)C5=CC=C(C=C5)F)CC3 + Cc1nc(NC(=O)N2CCC[C@H]2C(N)=O)sc1-c1ccnc(C(C)(C)C(F)(F)F)c1 [Alpelisib] (partner 2 µM)
How it was run: as §1

| Cell Line | relative viability ([1]; first compound 0.08 µM) | relative viability ([1]; first compound 0.253 µM) | relative viability ([1]; first compound 0.8 µM) | relative viability ([1]; first compound 2.53 µM) | relative viability ([1]; first compound 8 µM) | relative viability ([2]; first compound 0.08 µM) | relative viability ([2]; first compound 0.253 µM) | relative viability ([2]; first compound 0.8 µM) | relative viability ([2]; first compound 2.53 µM) | relative viability ([2]; first compound 8 µM) | relative viability ([3]; first compound 0.08 µM) | relative viability ([3]; first compound 0.253 µM) | relative viability ([3]; first compound 0.8 µM) | relative viability ([3]; first compound 2.53 µM) | relative viability ([3]; first compound 8 µM) | relative viability ([4]; first compound 0.08 µM) | relative viability ([4]; first compound 0.253 µM) | relative viability ([4]; first compound 0.8 µM) | relative viability ([4]; first compound 2.53 µM) | relative viability ([4]; first compound 8 µM) |
| --- | --- | --- | --- | --- | --- | --- | --- | --- | --- | --- | --- | --- | --- | --- | --- | --- | --- | --- | --- | --- |
| NCI-H23 | 0.542 | 0.492 | 0.463 | 0.568 | 0.403 | 0.698 | 0.55 | 0.585 | 0.804 | 0.516 | 0.287 | 0.281 | 0.274 | 0.276 | 0.23 | 0.694 | 0.545 | 0.772 | 0.829 | 0.411 |
| NCI-H322M | 0.552 | 0.492 | 0.479 | 0.504 | 0.524 | 0.686 | 0.622 | 0.555 | 0.706 | 0.683 | 0.74 | 0.801 | 0.678 | 0.813 | 0.738 | 0.769 | 0.85 | 0.897 | 0.804 | 0.8 |
| NCI-H358 | 0.138 | 0.136 | 0.145 | 0.162 | 0.128 | 0.204 | 0.196 | 0.16 | 0.179 | 0.162 | 0.654 | 0.611 | 0.613 | 0.774 | 0.502 | 0.821 | 0.912 | 0.744 | 1.07 | 0.553 |
| NCI-H441 | 0.219 | 0.196 | 0.2 | 0.208 | 0.234 | 0.289 | 0.255 | 0.252 | 0.296 | 0.254 | 0.5 | 0.502 | 0.515 | 0.642 | 0.367 |  | 0.638 | 0.79 | 1.01 | 0.588 |
| NCI-H460 | 0.187 | 0.151 | 0.203 | 0.0978 | 0.13 | 0.0657 | 0.059 | 0.0626 | 0.0637 | 0.0907 | 0.441 | 0.361 | 0.423 | 0.409 | 0.343 | 0.54 | 0.588 | 0.366 | 0.621 | 0.221 |
| NCI-H520 | 0.211 | 0.235 | 0.238 | 0.223 | 0.19 | 0.726 | 0.566 | 0.691 | 0.778 | 0.477 | 0.358 | 0.342 | 0.341 | 0.31 | 0.306 | 0.906 | 0.594 | 0.777 | 1.01 | 0.794 |
| NCI-H647 | 0.461 | 0.425 | 0.298 | 0.453 | 0.153 | 0.185 | 0.149 | 0.185 | 0.166 | 0.184 | 0.489 | 0.518 | 0.793 | 0.481 | 0.358 | 1.71 | 1.24 | 0.993 | 1.06 | 0.793 |
| NCI-H650 | 0.322 | 0.348 | 0.322 | 0.32 | 0.334 | 1.02 | 0.957 | 0.923 | 1.05 | 0.871 | 0.44 | 0.363 | 0.345 | 0.412 | 0.352 |  | 1.12 | 1.29 | 1.09 | 0.794 |
| NCI-H661 | 0.402 | 0.393 | 0.391 | 0.417 | 0.429 | 0.961 | 0.98 | 0.924 | 0.995 | 0.493 | 0.797 | 0.73 | 0.8 | 0.783 | 0.463 | 0.658 | 0.498 | 0.461 | 0.623 | 0.427 |
| NCI-H838 | 0.207 | 0.213 | 0.268 | 0.207 | 0.191 | 0.254 | 0.252 | 0.259 | 0.246 | 0.223 | 0.747 | 0.801 | 0.849 | 0.925 | 0.604 | 0.964 | 0.979 | 1.02 | 1.32 | 0.773 |
| NCI-H1355 | 0.368 | 0.404 | 0.378 | 0.407 | 0.455 | 1.09 | 1.04 | 1.02 | 1.1 | 0.97 | 0.749 | 0.815 | 0.793 | 0.732 | 0.529 | 0.79 | 0.948 | 0.854 | 0.899 | 0.623 |
| NCI-H1395 | 0.623 | 0.656 | 0.551 | 0.616 | 0.61 | 0.797 | 0.813 | 0.72 | 0.885 | 0.806 | 0.424 | 0.43 | 0.443 | 0.406 | 0.434 | 1.09 | 1.33 | 1.05 | 0.958 | 1.11 |
| NCI-H1437 | 0.297 | 0.317 | 0.325 | 0.323 | 0.257 | 0.338 | 0.371 | 0.323 | 0.35 | 0.235 | 0.658 | 0.692 | 0.66 | 0.692 | 0.51 |  | 1.01 | 1.09 | 1.21 | 0.729 |
| NCI-H1651 | 0.499 | 0.534 | 0.508 | 0.517 | 0.481 | 0.756 | 0.611 | 0.545 | 0.644 | 0.574 | 0.165 | 0.176 | 0.189 | 0.217 | 0.183 | 1.19 | 0.972 | 1.03 | 0.88 | 0.785 |
| NCI-H1666 | 0.663 | 0.616 | 0.627 | 0.739 | 1.01 | 0.838 | 0.853 | 0.884 | 0.89 | 0.754 | 0.698 | 0.756 | 0.684 | 0.751 | 0.764 | 0.969 | 1.02 | 0.902 | 1.06 | 0.794 |
